Assay results taken from PubChem BioAssay AID2060885 (Molecular Pharmacology Branch, DTP, NCI, 2025).

Tested on: NCI-H23 complex spheroids with HUVEC/MSC, viability
Experiment: Anticancer human tumor NCI-H23 cell line growth inhibition [RAS];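 also: spheroids exposed to compound for 7 days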;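 as to viability, T/C: 100% = DMSO vehicle control viability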
Conditions: for IC50: curve of first compound; for viability, T/C: stronger effect = lower value
From the text: RAS pathway inhibitors in Combinations in Complex Spheroids
A high-throughput screen of multi-cell type tumor spheroids was designed to identify active combinations of RAS pathway inhibitors and targeted small molecules. Complex spheroids include a stromal component modeled by human endothelial cells (HUVEC) and fibroblasts modeled by human mesenchymal stem cells (MSCs). The concentration ranges selected for each drug and investigational agent were based upon clinically achievable concentrations if the clinical Cmax of the agent was known.
Compounds. The drugs and investigational agents: abemaciclib (NSC768073), cobimetinib (NSC768068), divarasib (GDC6063, NSC841802), docetaxel (NSC628503), GDC-1971 (RLY-1971, NSC841576), gemcitabine (NSC613327), inavolisib (NSC800729), ipatasertib (NSC767898), KB-0742 (NSC834161), MRTX-1133 (NSC836407), osimertinib (NSC779217), RMC-4630 (NSC839698), RMC-6236 (NSC851965), RMC-6291 (NSC852671), Ro-3306 (NSC812927), sapanisertib (NSC764658), SN-38 (NSC673596), staurosporine (NSC755774), SY5609 (NSC837396), and tovorafenib (DAY101, NSC766906), were obtained from the National Cancer Institute (NCI) Developmental Therapeutics Program Chemical Repository. The FDA-approved anticancer drug set is available from the NCI Developmental Therapeutics Program. […] The stock solutions were prepared in dimethyl sulfoxide (DMSO, Sigma-Aldrich, St. Louis, MO, cat. D2650) at 800-fold the tested concentration and stored at -70 degrees C prior to their use. All drugs and investigational agents were tested over a range starting from a high concentration at or near the clinical Cmax and decreasing in half-log increments. If the clinical Cmax for an agent had not been determined, the highest concentration tested was 10 microM.
Cell Culture. All cells were maintained in an incubator at 37 degrees C and 5% CO2 with 95% humidity. The PDC lines were cultured according to standard operating procedures established by the NCI PDMR. All PDCs were thawed and cultured in Matrigel-coated flasks prepared with a working solution of 1X Ham's F-12 nutrient mix, without supplementation (Invitrogen, Waltham, MA, cat. 11765054), 100 U/mL penicillin-streptomycin (Invitrogen, cat. 15140122), and 2.5% Matrigel (Corning Inc., Corning, NY, cat. 354248) for the first three passages. The 362531-283-R-J2-PDC and 782815-120-R-J1-PDC lines were cultured in 6C/Colon 1B media, which includes advanced DMEM/F-12 (Thermo Fisher Scientific, cat. 12634028), 10 mM HEPES (Thermo Fisher Scientific, cat. 15630080), 1X GlutaMAX supplement (Thermo Fisher Scientific, cat. 35050061), 0.1 mg/mL primocin (InvivoGen, San Diego, CA, cat. ant-pm-2), 10% defined fetal bovine serum, heat inactivated (HyClone Laboratories Inc., Logan, UT, cat. SH30070.03HI), 50% L-WRN conditioned media (ATCC, cat. CRL-3276), 1.25 mM N-Acetyl-L-cysteine (Sigma-Aldrich, cat. A9165), 10 mM nicotinamide (Sigma-Aldrich, cat. N0636), 1X B-27 supplement (Thermo Fisher Scientific, cat. 17504044), 1X N-2 supplement (Thermo Fisher Scientific, cat. 17502048), 50 ng/mL human EGF (Thermo Fisher Scientific, cat. PHG0311), and 10 microM Y-27632 dihydrochloride (Tocris Bioscience, cat. 1254). The K12877-001-R-J1-PDC line was cultured in 6I media, which includes all 6C/Colon 1B media plus 10 ng/mL human FGF-10 (PeproTech, cat. 100-26), 1 ng/mL human FGF-2 (PeproTech, cat. 100-18B), 1 µM prostaglandin E2 (Tocris Bioscience, cat. 2296), […] hydrocortisone (Sigma-Aldrich, cat. H4001), and […] bovine insulin (Sigma-Aldrich, cat. I6634). The K86415-001-R-J1-PDC line was cultured in 6D media, which includes all 6C/Colon 1B media components minus the L-WRN conditioned media. The 485176-168-R4-J1-PDC was cultured in PANC media, which includes all 6C/Colon 1B media plus 100 ng/mL human FGF-10 (PeproTech, cat. 100-26), 500 nM SB-431542 (Selleckchem, cat. S1067), and 10 nM gastrin (Tocris Bioscience, cat. 3006). […]

## CC(C)n1nc(-c2ccc3oc(N)nc3c2)c2c(N)ncnc21 + CCn1c(-c2cccnc2C(C)OC)c2c3cc(ccc31)N1CCOC(CC(NC(=O)C(C(C)C)N(C)C(=O)C3(F)CCN(C(=O)C#CC(C)(C)N(C)C)CC3)C(=O)N3CCCC(N3)C(=O)OCC(C)(C)C2)C1
Second compound 0.000949 µM
  IC50: < 0.316 nM
Second compound 0.003 µM
  IC50: < 0.316 nM
Second compound 0.00949 µM
  IC50: < 0.316 nM
Second compound 0.03 µM
  IC50: < 0.316 nM
Second compound 0.0949 µM
  IC50: < 0.316 nM
Second compound 0.3 µM
  IC50: < 0.316 nM
Second compound 0.000949 µM, first compound 0.000316 µM
  viability, T/C: 33.1%
Second compound 0.000949 µM, first compound 0.001 µM
  viability, T/C: 33.1%
Second compound 0.000949 µM, first compound 0.00316 µM
  viability, T/C: 22%
Second compound 0.000949 µM, first compound 0.01 µM
  viability, T/C: 18.4%
Second compound 0.000949 µM, first compound 0.0316 µM
  viability, T/C: 16.5%
Second compound 0.000949 µM, first compound 0.1 µM
  viability, T/C: 8.34%
Second compound 0.003 µM, first compound 0.000316 µM
  viability, T/C: 30.4%
Second compound 0.003 µM, first compound 0.001 µM
  viability, T/C: 25%
Second compound 0.003 µM, first compound 0.00316 µM
  viability, T/C: 20.8%
Second compound 0.003 µM, first compound 0.01 µM
  viability, T/C: 18.1%
Second compound 0.003 µM, first compound 0.0316 µM
  viability, T/C: 12.2%
Second compound 0.003 µM, first compound 0.1 µM
  viability, T/C: 8.88%
Second compound 0.00949 µM, first compound 0.000316 µM
  viability, T/C: 28%
Second compound 0.00949 µM, first compound 0.001 µM
  viability, T/C: 24.2%
Second compound 0.00949 µM, first compound 0.00316 µM
  viability, T/C: 22.4%
Second compound 0.00949 µM, first compound 0.01 µM
  viability, T/C: 17.7%
Second compound 0.00949 µM, first compound 0.0316 µM
  viability, T/C: 12%
Second compound 0.00949 µM, first compound 0.1 µM
  viability, T/C: 9.44%
Second compound 0.03 µM, first compound 0.000316 µM
  viability, T/C: 26.2%
Second compound 0.03 µM, first compound 0.001 µM
  viability, T/C: 24.5%
Second compound 0.03 µM, first compound 0.00316 µM
  viability, T/C: 20.3%
Second compound 0.03 µM, first compound 0.01 µM
  viability, T/C: 18.6%
Second compound 0.03 µM, first compound 0.0316 µM
  viability, T/C: 10.4%
Second compound 0.03 µM, first compound 0.1 µM
  viability, T/C: 9.27%
Second compound 0.0949 µM, first compound 0.000316 µM
  viability, T/C: 27.5%
Second compound 0.0949 µM, first compound 0.001 µM
  viability, T/C: 25.4%
Second compound 0.0949 µM, first compound 0.00316 µM
  viability, T/C: 24.9%
Second compound 0.0949 µM, first compound 0.01 µM
  viability, T/C: 15.9%
Second compound 0.0949 µM, first compound 0.0316 µM
  viability, T/C: 9.52%
Second compound 0.0949 µM, first compound 0.1 µM
  viability, T/C: 10.3%
Second compound 0.3 µM, first compound 0.000316 µM
  viability, T/C: 24.9%
Second compound 0.3 µM, first compound 0.001 µM
  viability, T/C: 21.9%
Second compound 0.3 µM, first compound 0.00316 µM
  viability, T/C: 22.9%
Second compound 0.3 µM, first compound 0.01 µM
  viability, T/C: 16.1%
Second compound 0.3 µM, first compound 0.0316 µM
  viability, T/C: 10.5%
Second compound 0.3 µM, first compound 0.1 µM
  viability, T/C: 9.53%

## CC(=O)OC12COC1CC(O)C1(C)C(=O)C(O)C3=C(C)C(OC(=O)C(O)C(NC(=O)OC(C)(C)C)c4ccccc4)CC(O)(C(OC(=O)c4ccccc4)C21)C3(C)C (centres undefined) + C=CC(=O)N1CCN(c2nc(OCC3CCCN3C)nc3c(F)c(-c4nc(N)cc(C)c4C(F)(F)F)c(Cl)cc23)C(C)C1
Second compound 0.00316 µM
  IC50: < 31.6 nM
Second compound 0.01 µM
  IC50: < 31.6 nM
Second compound 0.0316 µM
  IC50: < 31.6 nM
Second compound 0.1 µM
  IC50: < 31.6 nM
Second compound 0.316 µM
  IC50: < 31.6 nM
Second compound 1 µM
  IC50: < 31.6 nM
Second compound 0.00316 µM, first compound 0.0316 µM
  viability, T/C: 12.9%
Second compound 0.00316 µM, first compound 0.1 µM
  viability, T/C: 17%
Second compound 0.00316 µM, first compound 0.316 µM
  viability, T/C: 17.9%
Second compound 0.00316 µM, first compound 1 µM
  viability, T/C: 16.9%
Second compound 0.00316 µM, first compound 3.16 µM
  viability, T/C: 25.1%
Second compound 0.00316 µM, first compound 10 µM
  viability, T/C: 41.9%
Second compound 0.01 µM, first compound 0.0316 µM
  viability, T/C: 14.2%
Second compound 0.01 µM, first compound 0.1 µM
  viability, T/C: 17.6%
Second compound 0.01 µM, first compound 0.316 µM
  viability, T/C: 13.1%
Second compound 0.01 µM, first compound 1 µM
  viability, T/C: 18.7%
Second compound 0.01 µM, first compound 3.16 µM
  viability, T/C: 19.1%
Second compound 0.01 µM, first compound 10 µM
  viability, T/C: 28.7%
Second compound 0.0316 µM, first compound 0.0316 µM
  viability, T/C: 15.5%
Second compound 0.0316 µM, first compound 0.1 µM
  viability, T/C: 17.1%
Second compound 0.0316 µM, first compound 0.316 µM
  viability, T/C: 15.6%
Second compound 0.0316 µM, first compound 1 µM
  viability, T/C: 15.9%
Second compound 0.0316 µM, first compound 3.16 µM
  viability, T/C: 23.9%
Second compound 0.0316 µM, first compound 10 µM
  viability, T/C: 26.2%
Second compound 0.1 µM, first compound 0.0316 µM
  viability, T/C: 12.4%
Second compound 0.1 µM, first compound 0.1 µM
  viability, T/C: 15.2%
Second compound 0.1 µM, first compound 0.316 µM
  viability, T/C: 11.8%
Second compound 0.1 µM, first compound 1 µM
  viability, T/C: 14.9%
Second compound 0.1 µM, first compound 3.16 µM
  viability, T/C: 22.8%
Second compound 0.1 µM, first compound 10 µM
  viability, T/C: 22.1%
Second compound 0.316 µM, first compound 0.0316 µM
  viability, T/C: 11.1%
Second compound 0.316 µM, first compound 0.1 µM
  viability, T/C: 13.9%
Second compound 0.316 µM, first compound 0.316 µM
  viability, T/C: 14.3%
Second compound 0.316 µM, first compound 1 µM
  viability, T/C: 16.3%
Second compound 0.316 µM, first compound 3.16 µM
  viability, T/C: 18.9%
Second compound 0.316 µM, first compound 10 µM
  viability, T/C: 26.8%
Second compound 1 µM, first compound 0.0316 µM
  viability, T/C: 11.8%
Second compound 1 µM, first compound 0.1 µM
  viability, T/C: 14.7%
Second compound 1 µM, first compound 0.316 µM
  viability, T/C: 14.4%
Second compound 1 µM, first compound 1 µM
  viability, T/C: 15.4%
Second compound 1 µM, first compound 3.16 µM
  viability, T/C: 21.5%
Second compound 1 µM, first compound 10 µM
  viability, T/C: 20.9%
